Laboratory results as given in patent US20260120814A1, “SYSTEMS, METHODS, AND DEVICES FOR PREDICTING PHARMACOKINETIC INFLUENCES ON KETOGENESIS FOLLOWING ADMINISTRATION OF TRICAPRILIN” (CERECIN INC., priority 2022, published 2026).
≈ marks a conversion by molar mass, not a printed value.

How the values were obtained:
[1] = Estimated absorption of undigested tricaprilin into blood circulation; details: during the first 4 hours
Procedure: As a next step, the digestion of the MCT formulation (such as AC-SD-03) in vitro can be measured. The formulation can be exposed to a gastric medium followed by lipolysis in a medium simulating intestinal conditions. The latter can result in the liberation of fatty acids expressed as the percentage of digested free fatty acid (e.g., tricaprilin), as shown at the graph 306. For each mole of tricaprilin, three moles of titratable fatty acids can be released. Within the first 5 min, 40±3% of tricaprilin can be converted to octanoic acid, followed by a gradual reduction in the digestion rate. After 15 min, the digestion profile plateaued at 83±4%. Assuming rapid absorption from the intestine, the digestion rate (kd) and extent (F) of lipolysis are mainly responsible for the bioavailability of octanoic acid. […] On a side note, there can be a certain probability that undigested tricaprilin can be absorbed into blood circulation as well. However, one estimated rate can be […] for this process. This corresponds to less than 0.5% of the total dose during the first 4 hours. […] Metabolic processes such as the hepatic conversion of tricaprilin would generally result in the formation of octanoic acid, subsequently converted to ketone bodies.

[2] = PBB model population parameters fitted to the phase I clinical trial; design: species or system humans; details: population parameter, after peroral AC-SD-03
Source text: In some scenarios the PBB model 102 can be written in the Mixtran programming language and executed using Monolix 2020R1 (e.g., Antony, France). The initial parameters and fixed-parameter ranges (e.g., such as those shown in Table 1 and/or the model inputs 106) can be obtained (e.g., from experimentation data and/or literature data).
In the following, population parameters can be obtained for the target population treated with a MCT formulation (e.g., AC-SD-03) using the Stochastic Approximation Expectation-Maximization (SAEM) algorithm. The population parameters can be considered to be log-normally distributed. Additionally, the estimation tasks of the empirical Bayes estimates (EBEs) and the conditional distribution can be performed to calculate the individual predictions and give the uncertainty of the individual parameters and the data for each individual, respectively. The individual clinical data 124 for the free fatty acid (e.g., octanoic acid) and ketones obtained from the pharmacokinetic study can be used for model validation. For instance, the accuracy of the prediction can be assessed by calculating the relative mean absolute prediction error (MAPE, %) using the following equation: […]
In some scenarios, considering that all population parameters can be within the initial ranges and prediction errors can remain at a low level, initial values (Table 1) can provide an estimate of the physiological and formulation-related influences. This leads to the following conclusions. Once tricaprilin reaches the small intestine, with a rate of 1.7 h^1, the absorption of fatty acids can become the rate-limiting step. Also, there can be more significant fluctuations in the absorption rate between different individuals as compared to the much faster lipolysis (4.6 h-1) and ketogenesis (2.6 h^1). The conversion of octanoic acid in the liver can play a minor role in the availability of the active form of tricaprilin. […] These observations can be systematically evaluated in the PPSA, and/or can be provided to the PBB model 102 as model inputs 106 or as part of a validation process.

[3] = cited from earlier work
[4] = Phase I clinical pharmacokinetic study of AC-SD-03; type: in vivo, healthy male (Caucasian and Chinese) volunteers; details: human
Procedure: A clinical pharmacokinetic study can be conducted (e.g., to generate the model inputs 106) with the MCT formulation. For example, a clinical pharmacokinetic study was conducted on the tricaprilin product AC-SD-03, approved by the local Institutional Review Board and carried out in compliance with the Good Clinical Practice guidelines of the International Conference of Harmonization (ICH-GCP). It was an open-label, randomized 2-way crossover study. Twenty healthy male (Caucasian and Chinese) volunteers in an age range of 18-50 years were enrolled. All subjects had undergone a supervised overnight fast of at least 8 h until 1 h before their scheduled morning dose. The breakfast consisting of 2 pieces of toast with butter, 2 strips of bacon, 2 scrambled eggs, 113 g of hash browns, and 240 mL of whole milk was standardized for all subjects. […] An additional 60 ml of water was used to rinse the dosing cup and administered to the subjects. Water was only restricted 1 h before and 1 h after drug administration, but was allowed ad libitum at all other times. Food and other fluid intake was restricted throughout the confinement period. Upon peroral administration of a single dose of the formulation, the blood tricaprilin, octanoic acid, and ketone body concentrations were quantified. For tricaprilin, blood samples were collected at 0, 1.5, 2.0, 2.5, and 8 h. […]

[5] = design: species or system humans; details: human, in vivo
Source text: To estimate the parameters involved in the distribution, metabolism, and elimination of the free fatty acid (such as octanoic acid), reliable data sources can be identified for generating a training data set to describe plasma pharmacokinetics after intravenous administration of either free fatty acids (such as octanoic acid) or ketones. Pharmacokinetic data 120 related to the MCT (such as tricaprilin) and its metabolites in humans, which can be included in the training data 122 and/or used by a validation system 124 of the biopharmaceutics modeling system, is summarized in Table 2:
In some examples, ketone plasma concentration can be quantified following an intravenous bolus injection of sodium acetoacetate (n=12). Acetoacetate and D-f3-hydroxybutyrate (n=6), two main components of plasma ketones, can also be quantified upon intravenous infusion of D-f3-hydroxybutyrate at three different doses. Blood free fatty acid (such as octanoic acid) concentration can be measured upon peroral administration of the free fatty acid (e.g, octanoic acid) at five different doses to a patient population (n=3 per dose). This pharmacokinetic data 120 can be analyzed using PKanalix 2020R1 (e.g., Lixoft, Antony, France). These injections, infusions, and/or consumptions of the doses by a target patient can be provided to the PBB model 102 (e.g., as the patient data 105). […]

## CCCCCCCC(=O)OCC(COC(=O)CCCCCCC)OC(=O)CCCCCCC [Tricaprilin]
[1]
  fraction of total dose absorbed as undigested tricaprilin: less than 0.5%
[2]
  lipolysis rate: 4.6 h⁻¹
[3]
  aqueous solubility: 0.4 mg/L (≈ 0.85 µM)
[4]; phase I clinical trial, peroral AC-SD-03
  tricaprilin found in blood circulation: negligible amounts
[4]; male, blood, oral, 50 g AC-SD-03 (42,500 μmol tricaprilin), read-out: Cmax of undigested triglyceride
  Cmax: 1050 nM

## CCCCCCCC(=O)O [octanoic acid]
[2]
  absorption rate of fatty acids: 1.7 h^1
  ketogenesis rate: 2.6 h^1
[5]
  VOA, volume of distribution of octanoic acid: 40.55 to 163.26 L
  absorption rate constant (ka): 0.23 to 3.16 h⁻¹
